According to patent US10689380B1, “Crystalline forms of valbenazine ditosylate” (Farmhispania S.A., priority 2019, dated 2020):

Tests used:
[1] = Dynamic Vapour Sorption (DVS) analysis; assay type: physicochemical; conditions: 25° C., first cycle
Method: (§1) As used herein, DVS means Dynamic Vapour Sorption Analysis. Unless stated otherwise, DVSs were performed according to the following equipment and conditions: DVS-1000 instrument by Surface Measurement Systems was used. Samples were prepared by transferring them into an aluminum crucible and loading this into the DVS. A method utilizing two cycles (0% to 90% RH) and (90% to 0% RH) was run. The equilibrium condition for each step was set to a mass constancy of ±0.001% over 60 min and a maximum time limit of 1440 min for each step. This method was undertaken at 25° C.

[2] = Stability against temperature stress as indicated by DSC and DVS data; assay type: physicochemical
Method: as §1, with “C. As used herein, DSC means Differential Scanning calorimetry Analysis. Unless stated otherwise, DSCs were performed according to the following equipment and conditions: DSC 822e Mettler Toledo. Crucible: Aluminum crucible with a capacity of 40 μL and with hole the lid. Gas: Dry nitrogen 50 mL/min. Method standard: Heating from 30° C. to 300° C. at a rate of 10° C./min.” for “C.”

valbenazine ditosylate [Form D]
polymorphic change associated with the sorption/desorption phenomenon in DVS, based on XRPD analysis ([1]; 70-80% relative humidity): transformation to polymorphic form II | water sorption by the sample (DVS) ([1]; at 70% relative humidity): approximately 6.0% | water desorption by the sample (DVS) ([1]; at 80% relative humidity): 4.0%

valbenazine ditosylate [Form E]
stability against temperature stress for formulation into an oral solid dosage form [2]: stable against temperature stress | water sorption by the sample (DVS) ([1]; at 90% relative humidity): approximately 1.4%
